The text below walks through data of article PMC7071032, “In Vitro Inhibition of Hsp90 Protein by Benzothiazoloquinazolinequinones Is Enhanced in The Presence of Ascorbate. A Preliminary In Vivo Antiproliferative Study” (Molecules, 2020).

Molecules are shown by their SMILES.

One data set has as its system Hsp90. The experiment in a line: Immunoblot of Hsp90 protein integrity in T24 cells. The settings on record: 5 µM quinone plus 1 mM ascorbate, 4 h. Type of data set: cell-based, human. As for the experimental part:
Nevertheless, when incubation was done in the presence of 1 mM ascorbate (vitamin C) plus quinones (including menadione), a new peptide fragment of about 70 kD was detected by the antibody against Hsp90.
Figure 1 Effects of selected quinones of Hsp90 (A) and poly(ADPribose)polymerase (PARP) (B) protein integrity in T24 cells. Cancer cells were incubated for 4 h with 5 µM menadione (K3), 15, 16, 19, or 20 either in the absence or in the presence of 1 mM ascorbate (Asc). Ctl represents control untreated cells. * p < 0.05 as compared to control conditions.
Cancer cells were incubated for 4 h in the absence and in the presence of compounds. Afterward, cells were washed twice with ice-cold PBS and then resuspended in RIPA lysis buffer supplemented with 1% protease inhibitor cocktail (Sigma–Aldrich, St. Louis, MO, USA) and 3% phosphatase inhibitor cocktail (Calbiochem, Darmstadt, Germany). Treatment of samples and electrophoresis conditions were conducted as previously reported. Mouse monoclonal primary antibodies against hsp90α/β C-terminus (F8), and against β-actin (clone AC-15), were purchased from Santa Cruz Biotechnology (Santa Cruz, CA, USA) and from Abcam (Cambridge, UK), respectively. Rabbit polyclonal antibodies against PARP were purchased from BD Biosciences (San Diego, CA, USA). […]
A general note: In western blotting, separated proteins are transferred to a membrane and probed.

The test system of data set [1] is poly(ADPribose)polymerase (PARP). Description: Immunoblot of PARP protein integrity in T24 cells. The format is cell-based, human. The settings on record: 5 µM, 4 h, regardless of the presence of ascorbate (1 mM). The protocol: Figure 1 Effects of selected quinones of Hsp90 (A) and poly(ADPribose)polymerase (PARP) (B) protein integrity in T24 cells. […] Ctl represents control untreated cells. * p < 0.05 as compared to control conditions. […] This was the case regardless of the presence of ascorbate (1 mM). The obtained results make a potential role of apoptosis unlikely to be the underlying mechanism of cell impairment induced by quinones, including menadione. Indeed, PARP is a substrate of caspase-3, therefore, when an apoptosis process is triggered, it is expected that PARP protein will be cleaved yielding a second protein band also recognized by the anti-PARP antibody. Cancer cells were incubated for 4 h in the absence and in the presence of compounds. Afterward, cells were washed twice with ice-cold PBS and then resuspended in RIPA lysis buffer supplemented with 1% protease inhibitor cocktail (Sigma–Aldrich, St. Louis, MO, USA) and 3% phosphatase inhibitor cocktail (Calbiochem, Darmstadt, Germany). Treatment of samples and electrophoresis conditions were conducted as previously reported. Mouse monoclonal primary antibodies against hsp90α/β C-terminus (F8), and against β-actin (clone AC-15), were purchased from Santa Cruz Biotechnology (Santa Cruz, CA, USA) and from Abcam (Cambridge, UK), respectively. Rabbit polyclonal antibodies against PARP were purchased from BD Biosciences (San Diego, CA, USA). […]

A further data set has as its system DU-145 (prostate) cells. The experiment in a line: MTT reduction assay, DU-145 cells. Type of data set: cell-based. The following applies: Homo sapiens, DU-145, 48 h, read-out: IC50 ± SEM DU-145. The protocol: (§1) As positive control, two well-known anticancer drugs, namely TAM and 5-FU, were also tested on these cell lines. […] Regarding 5-FU, it is a broad-spectrum chemotherapeutic drug used to treat a variety of malignancies. Particularly, it has a long history of use against bladder tumors.
(§2) Cell culture conditions were the same as reported elsewhere. Briefly, cell lines were kept in DMEM containing 10% fetal calf serum. In addition, 100 U/mL of penicillin and 100 µg/mL streptomycin from Gibco (Grand Island, NY, USA) were further added. Cell cultures were kept at 37 °C under an atmosphere of 95% air/5% CO2 and 100% humidity. Sodium L-ascorbate, menadione (vitamin K3), TAM, and 5-FU were purchased from Sigma (St. Louis, MO, USA).
(§3) The cytotoxicity of the quinones was assessed by following the reduction of MTT (3-(4,5-dimethylthiazol-2-yl)-2,5-diphenyltetrazolium bromide) to formazan blue and the capability of cancer cells to proliferate, namely a clonogenic assay.
(§4) Cells were seeded into 96-well plates at a density of 10,000 cells/well for 24 h and then incubated for 48 h with or without the quinone derivatives. […] The IC50 values were determined using the GraphPad Prism software (San Diego, CA, USA). Further incubation procedures and optical density reading of colored solutions were performed according to Benites et al..
In general terms: Tetrazolium assays rely on reduction of a dye to a coloured formazan, in cell work by metabolically active cells.

In data set [2] the test system is panel of cancer cells (T24, DU-145, MCF-7). Description: MTT reduction assay, panel of cancer cells (means, ranges, selectivity index). The settings on record: IC50 values of fibroblasts (AG 1523)/IC50 values of tumor cells (T24, DU-145, MCF-7). The format is cell-based, human. The protocol:
as §1
Such a selective index was calculated as the ratio between IC50 values of healthy cells/IC50 values in cancer cells.
as §4

Data set [3] deals with non-tumor fibroblasts AG 1523. Description: MTT reduction assay, non-tumor fibroblasts. The format is cell-based. The following applies: Homo sapiens, AG1523, 48 h incubation, read-out: IC50 ± SEM AG 1523. As for the experimental part: as §1, §2, §3, §4
For the next data set, the system named is MCF-7 (breast) cells. The experiment in a line: MTT reduction assay, MCF-7 cells. Type of data set: cell-based. The settings on record: Homo sapiens, MCF7, 48 h incubation, read-out: IC50 ± SEM MCF-7. As for the experimental part:
as §1, §2, §3, §4

A further data set concerns T24 (bladder) cells. Description: MTT reduction assay, T24 cells. Type of data set: cell-based. The following applies: Homo sapiens, T-24, 48 h incubation, read-out: IC50 ± SEM T24. As for the experimental part:
as §1, §2, §3, §4

`CC1=CC(=O)c2ccccc2C1=O` [menadione, reference compound]: the Hsp90 protein cleavage result with Hsp90 is recorded as “strong Hsp90 cleavage”. In addition, the PARP cleavage result in data set [1] is reported as “neither the quinone derivatives nor menadione induced a detectable PARP cleavage”.

In general, IC50 refers to the point on the concentration scale where inhibition reaches its midpoint. Usually melting point stands for the temperature, or range, at which the solid turns liquid. `CCCCCC1(O)C2=C(N=C3Sc4cc(C)ccc4N31)C(=O)c1ccccc1C2=O` (centres unmarked) [Compound 17] registered a melting point of 129 to 129.5 °C. Also, the IC50 in the data set on DU-145 (prostate) cells worked out at 8.46 ± 0.31 µM. Besides, the “MSI: mean selective index” value in data set [2] was 1.09. Moreover, the concentration for half-maximal inhibition (IC50) in data set [3] was 7.5 ± 0.69 µM. Moreover, the IC50 in the data set with MCF-7 (breast) cells is 5.26 ± 0.22 µM. The concentration for half-maximal inhibition (IC50) with T24 (bladder) cells came to 6.86 ± 0.33 µM.
